Some test systems named below: CAKI-1; COLO 205; EKVX; HOP-62; HT-29; KM12; M14; MDA-N; NCI-H23; OVCAR-4; OVCAR-5; OVCAR-8; SK-MEL-2; SN12C; SNB-75; T47D; TK-10; UACC-257; HCC 2998.
What all share (assay): inhibition of tumour cell growth, NCI panel, 48 h

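Each compound was tested at five concentrations against cells in 96-well plates for 48 hours. The concentration for 50% growth inhibition is given as GI50.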 The source made the active and inactive calls. Rule as the data show it: active = GI50 up to about 1.1 µM and inactive = higher. A value given as a limit tells only on which side of the number the result lay.

`COC(=O)C1=COC(OC2OC(CO)C(O)C(O)C2O)C2C3CN4CCc5c([nH]c6ccccc56)C4(CC12)O3` (stereo not drawn): the GI50 in the test on CAKI-1 was < 0.01 µM (active); in the test on COLO 205, > 100 µM (inactive); in the test with EKVX, > 100 µM (inactive); in the test on HOP-62 it was > 100 µM (inactive); in the test with HT-29 it was > 100 µM (inactive); in the test on KM12 it was > 100 µM (inactive). For the same compound, the GI50 in the test on M14, with MDA-N, in the test on NCI-H23, in the test on OVCAR-4, with OVCAR-5 and in the test with OVCAR-8 was > 100 µM (inactive) in each case. Also, the GI50 in the test with SK-MEL-2, in the test with SN12C, in the test on SNB-75, in the test with T47D, in the test on TK-10 and with UACC-257 was > 100 µM (inactive) throughout.

In the case of `O=C(NC(=S)Nc1ccc(Br)cc1)c1ccc2c(c1)Sc1ccccc1S2`, the GI50 is 20.1 µM (inactive) in the test with CAKI-1; 41.8 µM (inactive) in the test with COLO 205; 16.1 µM (inactive) in the test with HOP-62; 33.6 µM (inactive) in the test with HT-29; 23.8 µM (inactive) with KM12; 12.4 µM (inactive) with M14. Also, the GI50 in the test with MDA-N was 28.9 µM (inactive); in the test with NCI-H23, 21.5 µM (inactive); in the test on OVCAR-4 it was 19.2 µM (inactive); in the test on OVCAR-5, 20.6 µM (inactive); with OVCAR-8, 17.3 µM (inactive); in the test on SK-MEL-2, 24.5 µM (inactive). In addition, the GI50 in the test on SN12C is 18.8 µM (inactive); with SNB-75, 15 µM (inactive); in the test on T47D it was 16.9 µM (inactive); in the test on TK-10, 16.9 µM (inactive); in the test with UACC-257 it was 21.7 µM (inactive).

Consider `C[N+](C)(C)/N=C\c1ccc(O)c(O)c1`, for which the GI50 in the test with CAKI-1, in the test with COLO 205, with EKVX, with HCC 2998, with HOP-62 and with HT-29 was > 100 µM (inactive) throughout. Besides, the GI50 in the test on KM12, in the test with M14, in the test with MDA-N, in the test on NCI-H23, in the test with OVCAR-4 and with OVCAR-5 was > 100 µM (inactive) in each case. The GI50 with OVCAR-8, with SK-MEL-2, in the test on SN12C, in the test with T47D, in the test with TK-10 and in the test on UACC-257 was > 100 µM (inactive) throughout.

As to `O=[N+]([O-])c1cccc2nnccc12`, the GI50 was 34.9 µM (inactive) in the test with CAKI-1; 13.3 µM (inactive) in the test on COLO 205; 36.5 µM (inactive) with EKVX; 20.3 µM (inactive) in the test with HT-29; 23.7 µM (inactive) in the test with KM12; 24.3 µM (inactive) in the test with M14. The GI50 in the test with MDA-N is 17.6 µM (inactive); in the test with NCI-H23 it was 23.3 µM (inactive); with OVCAR-5 it was 63.5 µM (inactive); with OVCAR-8 it was 31.9 µM (inactive); with SK-MEL-2 it was 24.7 µM (inactive); in the test with SN12C it was 26.1 µM (inactive). Besides, the GI50 in the test with SNB-75 is 48.3 µM (inactive); with T47D, 36.8 µM (inactive); in the test with TK-10, 46.3 µM (inactive); with UACC-257, 16.5 µM (inactive).

As for `CCSC1=N/C(=C\c2ccco2)C(NN)=N1`, the GI50 in the test on CAKI-1, with COLO 205, in the test with EKVX, in the test on HOP-62, in the test on HT-29 and in the test with KM12 was > 50 µM (inactive) in each case. The GI50 in the test with M14, in the test on MDA-N, in the test on NCI-H23, in the test with OVCAR-5, with OVCAR-8 and with SK-MEL-2 was > 50 µM (inactive) each time. Further, the GI50 in the test with SN12C, in the test with SNB-75, in the test on T47D, with TK-10 and in the test on UACC-257 was > 50 µM (inactive) each time.

As to `COc1cc(/C=N/N=C2NCCN2)ccc1O`, the GI50 with COLO 205, with EKVX, with HCC 2998, with HOP-62, in the test on HT-29 and in the test on KM12 was > 100 µM (inactive) in each case. The GI50 with M14, in the test on MDA-N, in the test with NCI-H23, in the test on OVCAR-4, in the test on OVCAR-5 and in the test on OVCAR-8 was > 100 µM (inactive) throughout. For the same compound, the GI50 in the test on SK-MEL-2, in the test with SN12C, in the test with SNB-75, in the test with T47D, in the test on TK-10 and in the test on UACC-257 was > 100 µM (inactive) throughout.

`CN(C)/C=[N+]1/[C@@H](Cc2ccccc2)C(=O)O[B-]1(F)c1ccccc1` (stereo partly drawn): the GI50 with COLO 205, in the test with EKVX, in the test on HCC 2998, in the test on HOP-62, in the test with HT-29 and in the test with M14 was > 100 µM (inactive) throughout. Besides, the GI50 with MDA-N, in the test on NCI-H23, with OVCAR-4, with OVCAR-5, with OVCAR-8 and in the test with SN12C was > 100 µM (inactive) in each case. Besides, the GI50 in the test on SNB-75, with T47D, in the test with TK-10 and in the test with UACC-257 was > 100 µM (inactive) each time.

`C=C(C)[C@@H]1CCC2=C(CC[C@]3(C)[C@@H]([C@@H](CCC=C(C)C)C(=O)O)[C@H](O)C[C@@]23C)[C@@]1(C)CCC(=O)O` [PORICOIC ACID G]: the GI50 in the test with CAKI-1 is 83.6 µM (inactive); in the test with COLO 205, 52.8 µM (inactive); with EKVX it was 44.6 µM (inactive); with HOP-62, 53.2 µM (inactive); in the test with HT-29, 47.4 µM (inactive); in the test with KM12, 47.4 µM (inactive). Further, the GI50 in the test with M14 is 99.8 µM (inactive); in the test with MDA-N it was 86.3 µM (inactive); in the test with NCI-H23, 87.3 µM (inactive); in the test with OVCAR-4 it was > 100 µM (inactive); in the test with OVCAR-5, 45.4 µM (inactive); with OVCAR-8, > 100 µM (inactive). In addition, the GI50 was 70.3 µM (inactive) with SK-MEL-2; 52.4 µM (inactive) in the test on SN12C; 60.5 µM (inactive) with SNB-75; > 100 µM (inactive) in the test with T47D; > 100 µM (inactive) with TK-10; > 100 µM (inactive) in the test with UACC-257.

The values are drawn from ChEMBL document CHEMBL1201862, “PubChem BioAssay data set” (2004).
